Source: patent US11603552B2 (priority 2020, dated 2023)
Entries after “also recorded” stand apart in the source; their conditions may differ.

Columns and labels:
[1] = system: endogenous enzymes present in crude tongue scrape lysate; type: biochemical, human
[2] = target: SARS-1 papain-like protease (recombinant) (Severe acute respiratory syndrome coronavirus, UniProt P0C6X7)
[3] = system: human cells infected with OC43 coronavirus; type: cell-based
[4] = target: SARS-2 papain-like protease (recombinant) (Severe acute respiratory syndrome coronavirus 2, UniProt P0DTD1)
MERS = conditions: cited from earlier work
NL63 PLP2 (recombinant) = NL63 PLP2 (recombinant) (Human coronavirus NL63, UniProt P0C6X5); type: biochemical; design: cleavage of papain-like protease substrate: key to the marks not given beside the values
[5] = target: MERS papain-like protease (recombinant) (Middle East respiratory syndrome-related coronavirus, UniProt K9N7C7)
SARS-1 = conditions: cited from earlier work
SARS-2 = conditions: cited from earlier work
PLpro from SARS-CoV-2 = PLpro from SARS-CoV-2 (Severe acute respiratory syndrome coronavirus 2, UniProt P0DTD1)
[6] = system: human cells infected with NL63 coronavirus; type: cell-based; conditions: NL63, viral enzyme, in vivo (infected human cell lysate), after 15 minutes of incubation
PLpro from SARS-CoV-1 = PLpro from SARS-CoV-1 (Severe acute respiratory syndrome coronavirus, UniProt P0C6X7)
MERS PLpro = MERS PLpro (Middle East respiratory syndrome-related coronavirus, UniProt K9N7C7)
SARS PLpro = type: biochemical
human UCH-L3 = human UCH-L3 (Homo sapiens, UniProt P15374); type: biochemical
Sequence of human UCH-L3 (P15374 whole entry, looked up): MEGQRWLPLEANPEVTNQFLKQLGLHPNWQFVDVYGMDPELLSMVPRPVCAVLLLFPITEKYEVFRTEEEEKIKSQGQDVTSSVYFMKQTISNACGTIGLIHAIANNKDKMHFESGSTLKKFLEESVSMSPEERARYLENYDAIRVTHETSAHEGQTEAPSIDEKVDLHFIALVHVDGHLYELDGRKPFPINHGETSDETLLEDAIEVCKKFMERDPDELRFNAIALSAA

Sequence of NL63 PLP2 (recombinant) (P0C6X5 1640-1886 limits assumed): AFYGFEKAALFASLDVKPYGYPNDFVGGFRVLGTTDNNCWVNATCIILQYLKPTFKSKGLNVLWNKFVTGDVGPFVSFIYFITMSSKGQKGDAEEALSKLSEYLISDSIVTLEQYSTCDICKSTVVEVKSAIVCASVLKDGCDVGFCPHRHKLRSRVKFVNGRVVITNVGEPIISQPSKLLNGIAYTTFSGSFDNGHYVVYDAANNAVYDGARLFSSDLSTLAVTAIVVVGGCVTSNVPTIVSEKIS
Sequence of MERS papain-like protease (recombinant) (K9N7C7 1552-1823 limits assumed): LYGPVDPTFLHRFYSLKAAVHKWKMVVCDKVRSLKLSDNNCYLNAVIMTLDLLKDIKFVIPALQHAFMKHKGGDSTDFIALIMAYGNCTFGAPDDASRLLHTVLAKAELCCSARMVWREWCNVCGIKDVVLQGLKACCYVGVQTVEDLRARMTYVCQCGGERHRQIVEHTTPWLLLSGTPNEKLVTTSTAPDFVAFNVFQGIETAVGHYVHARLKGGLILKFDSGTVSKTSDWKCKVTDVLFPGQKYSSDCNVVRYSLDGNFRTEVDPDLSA
Sequence of MERS PLpro (K9N7C7 1552-1823 limits assumed): as above

Tyr-Dap-G-G (SEQ ID NO. 4)
cleavage by endogenous enzymes present in lysate [1]: is not cleaved
cleavage of papain-like protease substrate [2]: ++
cleavage, percent fluorescence increase relative to uninfected cells [3]: 34%^3
cleavage of papain-like protease substrate [4]: +

Ubiquitin
Catalytic rate (Kcat) (MERS): 0.313 s⁻¹
cleavage of papain-like protease substrate (NL63 PLP2 (recombinant)): +++
times more efficiently cleaved than ISG15 (NL63 PLP2 (recombinant)): 2.5 times
times more efficiently cleaved than the tetrapeptide (NL63 PLP2 (recombinant)): 120 times
cleavage of papain-like protease substrate [5]: ++
Catalytic rate (Kcat) (SARS-1): 0.167 s⁻¹
Catalytic rate (Kcat) (SARS-2): 1.26 s⁻¹
cleavage of substrate (qualitative) (PLpro from SARS-CoV-2): cleave
cleavage, percent fluorescence increase relative to uninfected cells [6]: 24%^1
cleavage of substrate (qualitative) (PLpro from SARS-CoV-1): cleave
cleavage of papain-like protease substrate [2]: ++
cleavage of papain-like protease substrate [4]: ++
cleavage of substrate (qualitative) (MERS PLpro): cleave

Ac-hTyr-Phe(guan)-G-G (SEQ ID NO. 10)
specific cleavage by SARS PLpro (not by MERS PLpro or human deubiquitylating enzymes) (SARS PLpro): specifically cleaved

L-R-G-G (SEQ ID NO. 1)
Catalytic rate (Kcat) (MERS): 5e-05 s⁻¹
cleavage by endogenous enzymes present in lysate [1]: is cleaved; also recorded: slight fluorescence increases
cleavage of papain-like protease substrate [5]: +
Catalytic rate (Kcat) (SARS-1): 8.5e-05 s⁻¹
Catalytic rate (Kcat) (SARS-2): 0.005 s⁻¹
cleavage of substrate (qualitative) (PLpro from SARS-CoV-2): cleave
cleavage of substrate (qualitative) (PLpro from SARS-CoV-1): cleave
cleavage of papain-like protease substrate [2]: +
cleavage, percent fluorescence increase relative to uninfected cells [3]: 22%^2
cleavage of papain-like protease substrate [4]: +
cleavage of substrate (qualitative) (MERS PLpro): cleave

Ac-Abu(Bth)-Dap-G-G (SEQ ID NO. 9)
specific cleavage by SARS PLpro (not by MERS PLpro or human deubiquitylating enzymes) (SARS PLpro): specifically cleaved

Ac-hPhe-Dap-G-G (SEQ ID NO. 12)
specific cleavage by SARS PLpro (not by MERS PLpro or human deubiquitylating enzymes) (SARS PLpro): specifically cleaved

Ac-Tyr-Dap-G-G (SEQ ID NO. 11)
specific cleavage by SARS PLpro (not by MERS PLpro or human deubiquitylating enzymes) (SARS PLpro): specifically cleaved

hTyr-Dap-G-G (SEQ ID NO. 13)
recognition of the substrate (human UCH-L3): do not recognize
